Experiment [1] concerns SIVmac251.30.SG3. Also on record: method as in earlier work. Conditions: SIVmac251.30.SG3, clade NA; cited from earlier work.
In the next experiment the test system is SVA.MLV. Details: method as in earlier work. The note with it: clade NA; cited from earlier work.
Experiment [2] relates to SIVmac251.30.SG3. In words: Neutralization assay, control virus SIVmac251.30.SG3. Format: cell-based, SIV. The note with it: Simian immunodeficiency virus; SIVmac251.30.SG3, clade NA. How it is done: Neutralization was measured using single-round-of-infection HIV-1 Env-pseudoviruses and TZM-bl target cells (ARP Cat No. #8129)[44],[45]. Compounds were prepared at 400 μM with 4% DMSO (dimethyl sulfoxide) in PBS (phosphate-buffered saline) and diluted 20 times as the starting concentration for serial dilution in the neutralization assays. Pseudoviruses of ten strains from HIV-1 clades A, B, and C were incubated with serial dilutions of drug compounds, then added to TZM-bl target cells which have a luciferase reporter gene. After incubation at 37 °C for 2 days, infection of target cells was measured by luciferase activity. Neutralization curves were fit by nonlinear regression using a five-parameter hill slope equation[45].

Molecules are shown by their SMILES. Where two headings read alike, the source gives them in different places. Some results are limits rather than exact numbers.

The IC50 is the point on the concentration scale where inhibition reaches its midpoint.

For the molecule `COc1cnc(-n2cnc(C)n2)c2[nH]cc(C(=O)C(=O)N3CCN(C(=O)c4ccccc4)CC3)c12` [BMS-626529], the IC50 in the experiment with SIVmac251.30.SG3 [1] and in the experiment on SVA.MLV was more than 20 µM throughout. Molecule `COc1cnc(-c2csc(C(=O)NCCO)n2)c2[nH]cc(C(=O)C(=O)N3CCC(=C(C#N)c4ccccc4)CC3)c12` [BMS-818251] returned an IC50 in the experiment with SIVmac251.30.SG3 [2] of more than 20 µM.

Values taken from publication PMC6318274, “Lattice engineering enables definition of molecular features allowing for potent small-molecule inhibition of HIV-1 entry” (Nature Communications, 2019).
